In patent US20110275606A1, “SUBSTITUTED PORPHYRINS” (DUKE UNIVERSITY, priority 2009, published 2011):

Tests used:
WT cells = assay: XTT cell proliferation, radiation-induced cytotoxicity; format: cell-based; details: 5 Gy, 48 hours post-radiation, compared to untreated irradiated WT cells
Protocol: XTT, a tetrazolium salt, is used to measure cell viability after irradiation exposure. XTT is reduced by viable mitochondria to formazan, which causes a colorimetric change that can be measured at 450 nm. Approximately 5×10^4 cells are seeded per well in 96-well plates and incubated for 18 hours in fresh medium along with the compound at the final concentration indicated (3 replicates each). One set of plates is used as an unirradiated control and the other set was irradiated with 5 Gy. Five Gy is the optimal dose for observing efficient cytotoxicity within 48 hours. An XTT cell proliferation kit (Roche) is used to measure this cytotoxicity. All assays are performed in triplicate and the absorbance is read on a Spectramax plate reader. XTT is used to assess both the toxicity of the compounds and the effect of each compound on IR-induced cytotoxicity. All cells are pre-treated with the indicated compound two hours prior to being irradiated with 5 Gy and are assayed for viability 48 hours post-radiation.

[1] = test system: B16F10 melanoma cell line; assay: Hyperthermia plus Mn porphyrin, tumor growth delay; format: in vivo, C57/BL6 mice; details: combination with hyperthermia (1d, 5d, 8d); 5 mg/kg twice per day; sacrifice day 9
Protocol: Treatment with hyperthermia and Mn porphyrins leads to a significant delay in tumor growth. In C57/BL6 mice, B16F10 melanoma cell line ([…]) is implanted in right flank. […] Tumor volumes are measured. Animals are sacrificed at day 9.

[2] = Antioxidant properties: log kcat for the dismutation of superoxide (SOD activity); format: biochemical
Protocol: (§1) Table indicating the redox properties (E1/2 of the Mn^IIIP/Mn^IIP redox couple) and antioxidant (log kcat for the dismutation of superoxide, O2′^−) properties of ortho and meta isomers of Mn N-substituted pyridylporphyrins. The E1/2 and log kcat were determined as described in Reboucas et al., Dalton Trans., 2008, 1233-42. Rf is the ratio of the drug path over solvent path on thin-layer silica with water/acetonitrile/KNO3 saturated water and is a measure of […]. […] In addition, as the length of the pyridyl substituent increases the SOD activity of the ortho compounds drops while there is no change in the SOD activity of the meta compounds.

[3] = Redox properties: E1/2 of the Mn^IIIP/Mn^IIP redox couple; format: physicochemical
Protocol: as §1

A-T cells = assay: Annexin V/propidium iodide post-radiation apoptosis, A-T cells; format: cell-based; details: 5 Gy
Protocol: (§2) Annexin V/propidium iodide staining is used as a second method to measure radiation-induced cytotoxicity. Cells are incubated in fresh medium along with the compounds at the final concentrations indicated. One set of samples is irradiated (5 Gy) to efficiently induce apoptosis within 48 hours. An annexin V/propidium iodide kit (BioVision) is used to detect apoptotic cells. The annexin V is labeled with fluorescein isothiocyanate (FITC) to detect phospholipid phosphatidylserine (PS) on the outer membrane of apoptotic cells; propidium iodide (PI) is used to detect necrotic cells. The assay is performed according to the manufacturer's instructions. Briefly, approximately 5×10^5 cells are washed in PBS, resuspended in annexin V and PI staining solution for 15 min at room temperature and analyzed immediately by flow cytometry (Flow Cytometry Core, UCLA). Annexin V and propidium iodide staining is used to measure post-radiation apoptosis.

Wildtype (WT) cells = assay: Gamma H2AX immunofluorescence, radiation-induced DNA damage; format: cell-based; details: 2 Gy, assessed at 15 minutes
Protocol: Radiation-induced DNA damage recognition is measured by γ-H2AX immunofluorescence. Wildtype (WT) cells are propagated in fresh medium with the compounds at specified concentrations. […] WT cells are collected at log phase of their growth cycle, after an 18-hour incubation with the indicated compounds. After treatment, the cells are irradiated with 2 Gy and assessed at 15 minutes. These conditions maximize the yield of DNA damaged cells while minimizing cytotoxicity. The cells are dropped onto cover slips and fixed with 4% paraformaldehyde, semi-permeabilized with 0.5% Triton-X 100 and washed with PBS. Cells are incubated with 1:400 dilution of mouse monoclonal antibody to γ-H2AX (Upstate Biotechnology), followed by 1:200 dilution of goat anti-mouse IgG antibody to immunoglobulin labeled with FITC (Jackson Immunochemicals) in PBS containing 10% FBS for 1.5 and 1 h, respectively. Slides are analyzed for γ-H2AX nuclear foci formation with FISH analysis software (Vysis) on a Leica DM RXA automated microscope equipped with Photometrix SenSyn. All slides are coded by one person and read blindly by another.

[4] = test system: 4T1 window chamber tumors; assay: Radiosensitivity of tumor vasculature in vivo (window chamber); design: species or system mice; details: combined with radiation 3 x 5 Gy; 6 mg/kg/day for three days; between 48 and 72 hours post-radiation
Protocol: 4T1 window chamber tumors are randomized to treatment with PBS or MnTE-2-PyP^5+, and radiation or sham-irradiation. […] Tumors are imaged immediately after radiation (0 hours), and every day thereafter (24, 48, and 72 hours), and these images are used to calculate the tumor vascular length densities.
Mice are anesthetized with sodium pentobarbital (80 mg/kg, i.p.), and a 1-cm diameter circular incision is made in the dorsal skin flap, over which a titanium chamber is surgically implanted. A 10-μL suspension of tumor cells (5×10^3 cells) is then injected into the opposing flap of skin. […] Observations of window chamber tumors are performed daily on restrained, unanaesthetized mice with an inverted Zeiss fluorescence microscope (Carl Zeiss, Jena, Germany). Images are captured onto a personal computer with Scion Image software (Frederick, Md.) and analyzed with Adobe Photoshop (San Jose, Calif.). Tumor volume and vascular length densities are calculated as follows. Briefly, tumor volumes are calculated with the formula: d^2(3.14/2), where the diameter is determined from low-power (2.5×) microscopy images by comparing pixel dimensions with micrometer values. Vascular length densities are measured from medium-power (5×) fields by using image analysis software (Scion Image) to trace the vascular network. […]

CD1 male mice = assay: Carrageenan-induced pleurisy; format: in vivo; details: 0.3 mg/kg; 4 h after carrageenan
Protocol: Pleurisy is induced by carrageenan. Six to eight week old CD1 male mice are used. The mice are anesthetized with isoflurane and a skin incision is made at the level of the left sixth intercostal space. The underlying muscle is dissected and saline (0.2 ml) or saline containing 1% (w/v) λ-carrageenan (Sigma-Aldrich Ltd, 0.2 ml) is injected into the pleural cavity. The skin incision is closed with a suture and the animals are allowed to recover. At 4 h after the injection of carrageenan, the animals are killed. The chest is carefully opened and the pleural cavity is rinsed with 2 ml of saline solution containing heparin (5 U/ml) and indomethacin (10 μg/ml). The exudate and washing solution is removed by aspiration and the total volume is measured. Any exudate, which is contaminated with blood, is discarded. The amount of exudate is calculated by subtracting the volume injected (2 ml) from the total volume recovered. The leukocytes in the exudate are suspended in phosphate-buffer saline (PBS, 0.01M, pH7.4) and counted with an optical microscope in a Burker's chamber after vital Trypan Blue staining.

SOD-deficient E. coli = assay: Aerobic growth of SOD-deficient E. coli in minimal medium (turbidimetry at 700 nm); format: cell-based, Escherichia coli; details: 20 and 30 μM, 19th hour, positive control MnTE-2-PyP^5+
Protocol: Escherichia coli (E. coli) strains used were AB1157, wild type (F-thr-1; leuB6; proA2; his-4; thi-1; argE2; lacY1; galK2; rpsL; supE44; ara-14; xyl-15; mtl-1; tsx-33), and JI1132, SOD-deficient, sodA-sodB-(same as AB1157 plus (sodA::mudPR13)25 (sodB-kan)1-Δ2). Both strains were obtained from J. A. Imlay. In addition to AB/JI strains another strain GC and its SOD-deficient analogue QC were used. The experiments were carried out as described in more detail in Reboucas et al., Dalton Trans., 2008, 1233-42. Briefly, cultures were grown aerobically in a 5 amino acid restricted medium (L-leucine, L-threonine, L-proline, L-arginine, L-histidine) in flasks on a water bath shaker at 37° C. and 200 rpm. The effect of the compound of Example 1 on the growth of these strains was followed turbidimetrically at 700 nm (to minimize the interference of compounds studied) and compared to the growth curves of both strains in the absence of Mn porphyrin (controls). Deionized water was used throughout the study. The effects are shown in FIG. 2 for one strain (QC and GC) and in FIG. 3 for other strain (AB and JI). […] The effects varied with the type of the strain.

wild type cells = assay: Annexin V/propidium iodide post-radiation apoptosis, wild type cells; format: cell-based; details: 5 Gy
Protocol: as §2

Male Sprague-Dawley rats = assay: Carrageenan-induced paw oedema; format: in vivo; details: 0.3 mg/kg; rat paw
[5] = Thin layer chromatography Rf (lipophilicity); format: physicochemical; details: thin-layer silica, saturated KNO3(aq):H2O:MeCN (1:1:8); measure of lipophilicity
Protocol: Thin layer chromatography (TLC) was carried out in polyester-backed silica-gel sheets without fluorescent indicator (Sigma-Aldrich Z122777-25EA) cut into ˜2×20 cm strips and eluted with a saturated KNO3(aq):H2O:MeCN (1:1:8, v/v/v) mixture in a capped 1 L chamber. Typically, 1 microliter of ˜1 mM samples were applied at ˜1 cm of the strip border and the solvent front was allowed to run ˜12 cm.
as §1
Rf is a measure of lipophilicity and is linearly related to log P where P is the partition coefficient between water and n-octanol. (Kos et al., Free Radic. Biol. Med., 47, 72-78, 2009, which is incorporated by reference herein).

Rf [5]	Compound	reduction of IR-induced cytotoxicity (WT cells) [%]	delay of tumor growth [1]	logkcat [2]	E1/2 [3]	reduction in the percentage of apoptotic cells after radiation exposure (A-T cells) [%]	reduction of IR-induced γ-H2AX immunofluorescent nuclear foci (IRIFs) (Wildtype (WT) cells) [%]	tumor devascularization (vascular length density) [4]	decrease of myeloperoxidase activity (CD1 male mice)	decrease of number of polymorphonuclear cells (CD1 male mice)	decrease of volume of exudates (CD1 male mice)	protecting E. coli compared with MnTE-2-PyP^5+ (FIG. 3) (SOD-deficient E. coli; SOD-deficient strain JI / wild type AB)	protecting E. coli compared with MnTE-2-PyP^5+ (FIG. 2) (SOD-deficient E. coli; SOD-deficient strain QC / wild type GC)	reduction in the percentage of apoptotic cells after radiation exposure (wild type cells) [%]	decrease of myeloperoxidase activity (Male Sprague-Dawley rats)	decrease of number of polymorphonuclear cells (Male Sprague-Dawley rats)
–	MnTnPrOH-3-PyP^5+	50	Full delay of tumor growth	6.83	+52 mV	40	57	significant tumor devascularization	to control levels	to control levels	to control levels	better	similar	60	to control levels	to control levels
0.05	MnTnPrOH-2-PyP^5+	50	Full delay of tumor growth	7.38	+238 mV	40	57	significant tumor devascularization	to control levels	to control levels	to control levels	–	–	60	to control levels	to control levels
0.1	OCCC[n+]1cccc(-c2c3nc(c(-c4ccc[n+](CCCO)c4)c4ccc([nH]4)c(-c4ccc[n+](CCCO)c4)c4nc(c(-c5ccc[n+](CCCO)c5)c5ccc2[nH]5)C=C4)C=C3)c1 [H2TnPrOH-3-PyP]	–	–	–	–	–	–	–	–	–	–	–	–	–	–	–
0.09	OCCC[n+]1ccccc1-c1c2nc(c(-c3cccc[n+]3CCCO)c3ccc([nH]3)c(-c3cccc[n+]3CCCO)c3nc(c(-c4cccc[n+]4CCCO)c4ccc1[nH]4)C=C3)C=C2 [H2TnPrOH-2-PyP]	–	–	–	–	–	–	–	–	–	–	–	–	–	–	–
